Laboratory results as given in ChEMBL document CHEMBL4806968, “Hipk inhibitors and methods of use thereof” (2020).
Activity calls are given as the source filed them. No cut-off for these calls is given here.

Legend:
[1] = biological target: T1, Tyrosine-protein kinase Mer (Homo sapiens) (UniProt Q12866); experiment: Inhibition of MER (unknown origin) at 0.5 uM relative to control
T1 sequence (whole entry): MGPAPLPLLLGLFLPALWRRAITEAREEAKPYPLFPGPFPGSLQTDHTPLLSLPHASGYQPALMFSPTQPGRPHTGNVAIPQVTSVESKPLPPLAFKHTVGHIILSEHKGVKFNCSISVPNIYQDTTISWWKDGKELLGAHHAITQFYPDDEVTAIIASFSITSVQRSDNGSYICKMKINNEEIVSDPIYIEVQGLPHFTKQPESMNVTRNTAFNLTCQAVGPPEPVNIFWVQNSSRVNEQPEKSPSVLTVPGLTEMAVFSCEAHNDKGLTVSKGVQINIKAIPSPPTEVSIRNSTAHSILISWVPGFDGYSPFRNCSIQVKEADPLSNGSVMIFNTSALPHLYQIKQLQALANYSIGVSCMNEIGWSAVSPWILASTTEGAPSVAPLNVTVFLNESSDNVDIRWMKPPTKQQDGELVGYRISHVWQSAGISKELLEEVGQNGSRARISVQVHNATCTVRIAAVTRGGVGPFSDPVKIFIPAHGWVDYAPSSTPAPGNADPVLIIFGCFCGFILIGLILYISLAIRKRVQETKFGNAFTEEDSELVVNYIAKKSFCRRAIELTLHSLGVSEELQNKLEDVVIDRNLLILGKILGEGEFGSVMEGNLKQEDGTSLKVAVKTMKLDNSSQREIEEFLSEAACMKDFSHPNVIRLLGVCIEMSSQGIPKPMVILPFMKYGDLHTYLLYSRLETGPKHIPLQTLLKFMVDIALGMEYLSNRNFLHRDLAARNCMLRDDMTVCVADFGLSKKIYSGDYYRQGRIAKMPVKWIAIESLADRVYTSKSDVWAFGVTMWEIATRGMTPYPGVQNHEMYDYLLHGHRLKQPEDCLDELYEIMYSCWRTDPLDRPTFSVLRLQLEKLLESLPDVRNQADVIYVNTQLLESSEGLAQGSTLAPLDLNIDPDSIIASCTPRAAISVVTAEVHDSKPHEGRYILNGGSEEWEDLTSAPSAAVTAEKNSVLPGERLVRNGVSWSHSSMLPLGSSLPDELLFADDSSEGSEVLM

[2] = biological target: T2, Serine/threonine-protein kinase TAO3 (Homo sapiens) (UniProt Q9H2K8); experiment: Inhibition of TAOK3 (unknown origin) at 0.5 uM relative to control
T2 sequence (whole entry): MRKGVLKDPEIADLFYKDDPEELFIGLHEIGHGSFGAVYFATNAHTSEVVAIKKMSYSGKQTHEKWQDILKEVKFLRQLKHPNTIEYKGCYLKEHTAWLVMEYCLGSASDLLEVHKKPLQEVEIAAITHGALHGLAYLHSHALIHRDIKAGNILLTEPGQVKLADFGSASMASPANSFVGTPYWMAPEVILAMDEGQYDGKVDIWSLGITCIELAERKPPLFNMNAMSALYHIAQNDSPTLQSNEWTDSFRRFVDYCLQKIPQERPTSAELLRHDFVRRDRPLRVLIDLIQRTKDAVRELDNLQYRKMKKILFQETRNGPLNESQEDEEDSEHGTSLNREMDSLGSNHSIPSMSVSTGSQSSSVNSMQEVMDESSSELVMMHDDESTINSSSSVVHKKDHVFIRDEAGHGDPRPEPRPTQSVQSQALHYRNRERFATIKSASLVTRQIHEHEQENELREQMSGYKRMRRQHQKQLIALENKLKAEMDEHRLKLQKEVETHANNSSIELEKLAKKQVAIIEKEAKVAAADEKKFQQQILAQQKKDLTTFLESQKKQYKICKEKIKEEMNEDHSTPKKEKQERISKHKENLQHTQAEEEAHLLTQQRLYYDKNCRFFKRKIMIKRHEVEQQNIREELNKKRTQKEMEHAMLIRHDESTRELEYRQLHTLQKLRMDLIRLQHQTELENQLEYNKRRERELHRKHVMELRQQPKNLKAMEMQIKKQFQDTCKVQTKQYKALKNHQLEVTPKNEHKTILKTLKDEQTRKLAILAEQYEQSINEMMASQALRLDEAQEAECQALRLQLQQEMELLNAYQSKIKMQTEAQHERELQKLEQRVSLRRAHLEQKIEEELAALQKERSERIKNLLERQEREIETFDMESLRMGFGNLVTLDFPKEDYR

[3] = biological target: T3, Ephrin type-A receptor 8 (Homo sapiens) (UniProt P29322); experiment: Inhibition of EPHA8 (unknown origin) at 0.5 uM relative to control
T3 sequence (whole entry): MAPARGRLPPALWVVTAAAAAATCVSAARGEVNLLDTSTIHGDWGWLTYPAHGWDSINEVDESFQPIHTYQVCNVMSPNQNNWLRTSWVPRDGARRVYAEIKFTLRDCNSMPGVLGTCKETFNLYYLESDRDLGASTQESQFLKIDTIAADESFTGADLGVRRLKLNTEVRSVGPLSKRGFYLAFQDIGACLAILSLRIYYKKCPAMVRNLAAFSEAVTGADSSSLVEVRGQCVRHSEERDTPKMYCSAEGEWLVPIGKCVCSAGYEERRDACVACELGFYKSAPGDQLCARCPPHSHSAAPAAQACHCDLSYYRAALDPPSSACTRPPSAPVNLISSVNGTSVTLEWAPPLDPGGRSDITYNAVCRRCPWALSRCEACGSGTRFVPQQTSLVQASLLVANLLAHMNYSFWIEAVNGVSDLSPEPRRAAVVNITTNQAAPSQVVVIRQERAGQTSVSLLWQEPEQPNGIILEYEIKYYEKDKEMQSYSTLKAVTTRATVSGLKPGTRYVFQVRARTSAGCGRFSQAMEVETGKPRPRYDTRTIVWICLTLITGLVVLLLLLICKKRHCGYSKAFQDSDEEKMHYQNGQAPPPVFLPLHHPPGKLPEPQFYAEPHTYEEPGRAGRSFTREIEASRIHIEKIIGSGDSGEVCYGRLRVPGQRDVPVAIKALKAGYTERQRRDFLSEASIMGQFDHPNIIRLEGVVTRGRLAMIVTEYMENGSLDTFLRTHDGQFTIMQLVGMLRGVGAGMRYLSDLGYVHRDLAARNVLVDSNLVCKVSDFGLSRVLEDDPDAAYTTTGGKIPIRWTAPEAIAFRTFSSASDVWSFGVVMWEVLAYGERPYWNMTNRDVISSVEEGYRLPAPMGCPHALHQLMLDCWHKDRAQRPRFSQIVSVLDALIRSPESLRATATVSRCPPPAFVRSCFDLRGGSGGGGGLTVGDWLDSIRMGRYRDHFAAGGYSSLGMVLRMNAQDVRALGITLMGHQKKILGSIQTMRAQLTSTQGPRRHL

[4] = biological target: Homeodomain-interacting protein kinase 2 (Homo sapiens) (UniProt Q9H2X6); experiment: Inhibition of HIPK2 (unknown origin) assessed as effect on HIPK2 protein level by Western blotting analysis
GILM3 = experiment: Inhibition of cell migration in human GILM3 cells at 1 to 10 uM; assay type: functional, cell-based; conditions: dose 1-10 µM

Homeodomain-interacting protein kinase 2 (Homo sapiens), sequence (Q9H2X6 whole entry, looked up): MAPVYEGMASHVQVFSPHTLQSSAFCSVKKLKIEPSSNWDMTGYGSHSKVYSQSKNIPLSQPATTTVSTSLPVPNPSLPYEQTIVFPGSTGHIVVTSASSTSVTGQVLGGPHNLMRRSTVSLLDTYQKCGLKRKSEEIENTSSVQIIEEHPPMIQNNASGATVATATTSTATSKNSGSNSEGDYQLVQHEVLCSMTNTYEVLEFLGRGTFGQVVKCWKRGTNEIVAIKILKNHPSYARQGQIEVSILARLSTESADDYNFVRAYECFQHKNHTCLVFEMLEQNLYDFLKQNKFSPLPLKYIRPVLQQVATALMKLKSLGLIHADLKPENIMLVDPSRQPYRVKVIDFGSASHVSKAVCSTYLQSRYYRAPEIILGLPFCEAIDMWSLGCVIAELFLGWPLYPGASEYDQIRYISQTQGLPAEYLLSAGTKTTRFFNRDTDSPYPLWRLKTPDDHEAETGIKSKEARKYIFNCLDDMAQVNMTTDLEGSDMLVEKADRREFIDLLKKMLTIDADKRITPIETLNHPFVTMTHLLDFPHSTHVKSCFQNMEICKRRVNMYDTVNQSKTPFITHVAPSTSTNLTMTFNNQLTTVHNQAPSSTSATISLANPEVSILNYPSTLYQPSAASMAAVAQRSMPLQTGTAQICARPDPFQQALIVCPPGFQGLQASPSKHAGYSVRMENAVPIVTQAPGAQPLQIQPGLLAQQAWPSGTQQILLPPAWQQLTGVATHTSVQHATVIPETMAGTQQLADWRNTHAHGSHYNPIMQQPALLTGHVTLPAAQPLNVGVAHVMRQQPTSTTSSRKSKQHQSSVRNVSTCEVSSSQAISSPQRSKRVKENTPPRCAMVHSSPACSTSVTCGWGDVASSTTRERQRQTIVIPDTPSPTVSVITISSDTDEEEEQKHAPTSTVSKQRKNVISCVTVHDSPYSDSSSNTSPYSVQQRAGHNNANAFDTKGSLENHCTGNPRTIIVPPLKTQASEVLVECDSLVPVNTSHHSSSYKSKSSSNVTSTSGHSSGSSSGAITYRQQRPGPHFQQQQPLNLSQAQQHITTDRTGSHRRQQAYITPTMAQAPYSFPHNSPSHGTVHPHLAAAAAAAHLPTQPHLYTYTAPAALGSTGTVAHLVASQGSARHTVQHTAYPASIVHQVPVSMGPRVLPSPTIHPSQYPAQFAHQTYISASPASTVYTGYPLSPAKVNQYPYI

Structure (SMILES)	inhibition [1] [%]	inhibition [2] [%]	inhibition [3] [%]	Activity [4]	inhibition (GILM3)
CNC(=O)c1cc(Oc2ccc(NC(=O)c3n[nH]nc3-c3ccc(F)cc3)cc2)ccn1	–	–	51	–	–
CNC(=O)c1cc(Oc2ccc(NC(=O)c3nc(C(F)(F)F)sc3-c3ccc(F)cc3)cc2)ccn1	49	–	–	–	–
CNC(=O)c1cc(Oc2ccc(NC(=O)c3nc(S(C)(=O)=O)sc3-c3ccc(F)cc3)cc2)ccn1	60	–	54	inactive	Active
CNC(=O)c1cc(Oc2ccc(NC(=O)c3nc(NC)sc3-c3ccc(F)cc3)cc2)ccn1	–	55	–	–	–

The next lines start with results.

inhibition [1] [%]	inhibition [2] [%]	inhibition [3] [%]	Activity [4]	Structure (SMILES)	inhibition (GILM3)
41	40	–	–	CNC(=O)c1cc(Oc2ccc(NC(=O)c3nc(SC)oc3-c3ccc(F)cc3)cc2F)ccn1	–
91	–	–	inactive	CNC(=O)c1cc(Oc2ccc(NC(=O)c3nc(SC)[nH]c3-c3ccc(F)cc3)cc2)ccn1	Active
55	39	54	inactive	CNC(=O)c1cc(Oc2ccc(NC(=O)c3nc(SC)oc3-c3ccc(F)cc3)cc2)ccn1	Active
